Counter-ions that a name gives are not always drawn.

The target in the first assay is T1, NLRP3 inflammasome (Homo sapiens, UniProt Q96P20).
T1 construct: host or cells: THP-1 cells, PMA-differentiated
T1 sequence (Q96P20 whole entry): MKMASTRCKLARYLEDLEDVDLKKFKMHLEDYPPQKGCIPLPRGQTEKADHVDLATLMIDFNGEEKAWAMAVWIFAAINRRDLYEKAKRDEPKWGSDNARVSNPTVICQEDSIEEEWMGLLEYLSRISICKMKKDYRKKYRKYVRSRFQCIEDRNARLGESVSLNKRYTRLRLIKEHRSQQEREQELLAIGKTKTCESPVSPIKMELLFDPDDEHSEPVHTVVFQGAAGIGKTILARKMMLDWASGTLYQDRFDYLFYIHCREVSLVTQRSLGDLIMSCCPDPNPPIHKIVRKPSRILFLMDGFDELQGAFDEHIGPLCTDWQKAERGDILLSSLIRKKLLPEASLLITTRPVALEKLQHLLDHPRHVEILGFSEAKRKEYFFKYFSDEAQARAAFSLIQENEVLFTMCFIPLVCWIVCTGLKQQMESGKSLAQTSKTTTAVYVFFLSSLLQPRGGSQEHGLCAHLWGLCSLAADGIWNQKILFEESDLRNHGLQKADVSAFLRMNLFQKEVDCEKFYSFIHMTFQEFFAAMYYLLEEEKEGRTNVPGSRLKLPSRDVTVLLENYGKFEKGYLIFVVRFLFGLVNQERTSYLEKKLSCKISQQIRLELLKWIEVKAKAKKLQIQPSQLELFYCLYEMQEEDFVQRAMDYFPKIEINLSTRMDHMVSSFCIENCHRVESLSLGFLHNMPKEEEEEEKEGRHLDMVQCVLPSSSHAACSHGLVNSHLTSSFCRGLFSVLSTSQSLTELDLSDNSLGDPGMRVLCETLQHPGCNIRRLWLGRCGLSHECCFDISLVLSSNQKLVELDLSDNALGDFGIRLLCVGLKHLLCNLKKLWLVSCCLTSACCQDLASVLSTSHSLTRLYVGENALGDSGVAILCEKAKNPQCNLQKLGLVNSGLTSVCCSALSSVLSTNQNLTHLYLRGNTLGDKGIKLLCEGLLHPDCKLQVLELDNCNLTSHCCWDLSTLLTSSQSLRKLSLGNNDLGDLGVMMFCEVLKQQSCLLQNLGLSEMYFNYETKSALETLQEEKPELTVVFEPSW
The experiment in a line: IL-1β secretion assay (nigericin-activated, PMA-differentiated THP-1 cells, HTRF). Type of assay: cell-based. Particulars: IL-1β IC50, PMA-differentiated THP-1 cells; compound 1 hour, then 15 μM nigericin, 3 hours; IL-1β by HTRF. On the procedure: 10 μL supernatant was removed, and IL-1β levels were monitored using an HTRF assay (CisBio, #62IL1PEC) according to manufacturers' instructions. Viability and pyroptosis was monitored with the addition of PrestoBlue cell viability reagent (Life Technologies, #A13261) directly to the cell culture plate.
IC50 values were calculated from the plot of percentage of inhibition versus the inhibitor concentration by a logistics fit according to: y=A2+(A1−A2)/(1+(x/IC50)^p) where y is the %-inhibition at the inhibitor concentration, x. A1 is the lowest inhibition value, i.e. 0%, and A2 the maximum inhibition value, i.e. 100%. The exponent, p, is the Hill coefficient. The curve fitting was conducted with an internally developed software suite.
NLRP3-dependent IL-1β secretion was stimulated in PMA-differentiated THP-1 cells by the addition of nigericin, and cytokines were measured in the […] after 3 hours. As discussed above, activation of the NLRP3 inflammasome requires both an NF-kB-dependent priming step and the addition of a NLRP3 activator.
(In general: In TR-FRET formats the signal depends on donor and acceptor labels being close together.)
Molecule `Cc1cc(C(F)(F)F)cc(O)c1-c1ccc(NC2CCC3CCC2N3CCO)nn1` (single isomer, unassigned) [Ex 86b] showed an IC50 of 1.8 nM.

The assay is the same for the next values; noted with them: PMA-differentiated THP-1 cells; compound 1 hour, then 15 μM nigericin, 3 hours; IL-1β by HTRF; read-out: IL-1β IC50.
On to `Cc1cc(C(F)(F)F)cc(O)c1-c1ccc(NC[C@@H]2CC(F)(F)CN2)nn1` [Ex 22, (S)-2-(6-(((4,4-Difluoropyrrolidin-2-yl)methyl)amino)pyridazin-3-yl)-3-methyl-5-(trifluoromethyl)phenol], for which the IC50 is 80.7 nM.

Turning to `Cc1cc(C(F)(F)F)cc(O)c1-c1ccc(NC[C@@H]2CCCCN2CCO)nn1` (single isomer, unassigned) [Ex 84b], the IC50 came to 53.3 nM. Same read-out and setting: then `Cc1cc(-c2c(C)cc(C(F)(F)F)cc2O)nnc1N[C@@H]1CCCN(C)C1=O` [Ex 102, (R)-3-((6-(2-Hydroxy-6-methyl-4-(trifluoromethyl)phenyl)-4-methylpyridazin-3-yl)amino)-1-methylpiperidin-2-one], with 49 nM. Still for that read-out and setting: then `Cc1cc(C(F)(F)F)cc(O)c1-c1ccc(NC[C@@](C)(O)CO)nn1` (single isomer, unassigned) [Ex 88b], with 60.5 nM.

With `Cc1cc(C(F)(F)F)cc(O)c1-c1ccc(NC[C@](C)(O)C(F)(F)F)nn1` [Ex 78, (S)-3-Methyl-2-(6-((3,3,3-trifluoro-2-hydroxy-2-methylpropyl)amino)pyridazin-3-yl)-5-(trifluoromethyl)phenol HCl-salt], the IC50 was 198 nM. Still for that read-out and setting: then `Cc1cc(C(F)(F)F)cc(O)c1-c1cc(C(F)(F)F)c(N[C@H]2C[C@@](C)(O)C2)nn1` [Ex 56, 2-(6-(((cis)-3-Hydroxy-3-methylcyclobutyl)amino)-5-(trifluoromethyl)pyridazin-3-yl)-3-methyl-5-(trifluoromethyl)phenol], with 8.3 nM; and `Cc1cc(C(F)(F)F)cc(O)c1-c1ccc(N[C@@H]2CCC[C@H]2O)nn1` (relative stereo) [Ex 24, (trans)-2-(6-((2-Hydroxycyclopentyl)amino)pyridazin-3-yl)-3-methyl-5-(trifluoromethyl)phenol], with 120 nM; and `Cc1cc(C(F)(F)F)cc(O)c1-c1ccc(NCC(O)(C(F)(F)F)C(F)(F)F)nn1` [Ex 10, 3-Methyl-2-(6((3,3,3-trifluoro-2-hydroxy-2-(trifluoromethyl)propyl)amino)pyridazin-3-yl)-5-(trifluoromethyl)phenol], with 349 nM.

Take `Cc1cc(C(F)(F)F)cc(O)c1-c1ccc(NC2(C)CCCN(C)C2)nn1` (stereo not shown) [Ex 52, 2-(6-((1,3-Dimethylpiperidin-3-yl)amino)pyridazin-3-yl)-3-methyl-5-(trifluoromethyl)phenol TFA-salt]: the IC50 stood at 186 nM. The same measure, in the same setting: then `Cc1cc(C(F)(F)F)cc(O)c1-c1ccc(NCc2ccccn2)nn1` [Ex 28, 3-Methyl-2-(6-((pyridin-2-ylmethyl)amino)pyridazin-3-yl)-5-(trifluoromethyl)phenol], with 288 nM; and `Cc1cc(C(F)(F)F)cc(O)c1-c1ccc(N[C@@H]2CC[C@@H](O)[C@H]2O)nn1` (single isomer, unassigned) [Ex 89b], with 182 nM; and `Cc1cc(C(F)(F)F)cc(O)c1-c1ccc(N[C@H]2CCC[C@H](O)C2)nn1` [Ex 57, 2-(6-(((1S,3S)-3-Hydroxycyclohexyl)amino)pyridazin-3-yl)-3-methyl-5-(trifluoromethyl)phenol], with 224 nM. The same measure, in the same setting: then `Cc1cc(C(F)(F)F)cc(O)c1-c1ccc(OCC(C)(C)O)nn1` [Ex 19, 2-(6-(2-Hydroxy-2-methylpropoxy)pyridazin-3-yl)-3-methyl-5-(trifluoromethyl)phenol], with 93.6 nM; and `Cc1cc(C(F)(F)F)cc(O)c1-c1ccc(NCC(C)(C)O)nn1` [Ex 15, 2-(6-((2-Hydroxy-2-methylpropyl)amino)pyridazin-3-yl)-3-methyl-5-(trifluoromethyl)phenol], with 85.9 nM; and `Cc1cc(C(F)(F)F)cc(O)c1-c1ccc(NCC(C)(C)N(C)C)nn1` [Ex 16, 2-(6-((2-(Dimethylamino)-2-methylpropyl)amino)pyridazin-3-yl)-3-methyl-5-(trifluoromethyl)phenol], with 36.3 nM.

The term IC50 denotes the concentration needed to halve the response being measured.
